From US20260083851A1 (AVILAR THERAPEUTICS, INC., priority 2022, published 2026) come the findings set out here.

By Kd is commonly meant a measure of binding affinity in units of concentration.

The target in this assay is T1, ASGP receptor (biotinylated ASGPR) (Homo sapiens, UniProt P07306).
T1 construct: biotin (biotinylated)
T1 sequence (P07306 1-291): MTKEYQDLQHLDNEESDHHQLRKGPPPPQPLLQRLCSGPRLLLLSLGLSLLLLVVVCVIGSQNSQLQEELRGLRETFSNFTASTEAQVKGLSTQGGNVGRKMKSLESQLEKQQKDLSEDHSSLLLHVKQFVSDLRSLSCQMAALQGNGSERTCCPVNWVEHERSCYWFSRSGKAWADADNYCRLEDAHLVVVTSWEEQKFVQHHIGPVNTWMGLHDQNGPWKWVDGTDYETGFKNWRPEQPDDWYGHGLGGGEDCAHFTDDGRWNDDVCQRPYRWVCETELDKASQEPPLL
It counts as binding. The following applies: SPR.

The mark [1] stands for this setting: Biacore 8K, 25° C., Table 1C, read-out: ASGPR KD.
[2] abbreviates: Biacore 8K, 25° C., Table 1E, read-out: ASGPR KD.
Setting [3] is: Biacore 8K, 25° C., Table 1A, read-out: ASGPR KD.
Setting [4] is: Biacore 8K, 25° C., Table 1D, read-out: ASGPR KD.

Like-named read-outs stand apart in the source and are kept apart here.

In the case of `O[C@@H]1[C@H](O)[C@@H](Nc2cncc(C(F)(F)F)n2)CO[C@@H]1Cc1nnc(-c2ccccc2)o1` [A209, (2R,3R,4R,5S)-2-((5-phenyl-1,3,4-oxadiazol-2-yl)methyl)-5-((6-(trifluoromethyl)pyrazin-2-yl)amino)tetrahydro-2H-pyran-3,4-diol], the Kd under setting [1] is less than 10 µM.
Turning to `C[C@H]1O[C@H](C2=CC3C(C2=O)[C@H]2CC[C@@H]3C2)[C@H](Oc2cccc(C(F)(F)F)n2)[C@@H](O)[C@H]1O` (stereo partly drawn) [A435B], under setting [2], the Kd is less than 10 µM.
In the case of `O[C@@H]1[C@H](O)[C@@H](Oc2cccc(C(F)(F)F)n2)CO[C@@H]1COc1ccnnc1` [A288], the Kd under setting [1] was less than 10 µM.
Regarding `O=C(O)c1ccc(N2CCC(CN3CCN(C[C@H]4OC[C@H](Nc5cccc(C(F)(F)F)n5)[C@@H](O)[C@H]4O)CC3)CC2)cc1` [A100, 4-(4-((4-(((2R,3R,4R,5S)-3,4-dihydroxy-5-((6-(trifluoromethyl)pyridin-2-yl)amino)tetrahydro-2H-pyran-2-yl)methyl)piperazin-1-yl)methyl)piperidin-1-yl)benzoic acid], the Kd under setting [3] was less than 10 µM.
As to `O[C@@H]1[C@H](O)[C@@H](Oc2cccc(C(F)(F)F)n2)CO[C@@H]1CN1CCCCC1` [A233, (2R,3R,4S,5S)-2-(piperidin-1-ylmethyl)-5-((6-(trifluoromethyl)pyridin-2-yl)oxy)tetrahydro-2H-pyran-3,4-diol], the Kd under setting [1] was less than 10 µM.
Regarding `CC#Cc1cccc(N[C@H]2CO[C@H](CO)[C@H](O)[C@@H]2O)n1` [A189, (2R,3R,4R,5S)-2-(hydroxymethyl)-5-((6-(prop-1-yn-1-yl)pyridin-2-yl)amino)tetrahydro-2H-pyran-3,4-diol], where the note is “Biacore 8K, 25° C., Table 1C, numeric bound, read-out: ASGPR KD”, the Kd is more than 30 µM.
For `C[C@H]1O[C@H](CO)[C@H](Oc2cccc(C(F)(F)F)n2)[C@@H](O)[C@H]1O` [A438], the Kd under setting [2] was less than 10 µM.
As to `O[C@@H]1[C@H](O)[C@@H](Oc2cccc(C(F)(F)F)n2)CO[C@@H]1CN1CCN(c2ccccc2)CC1` [A242], under setting [1], the Kd is less than 10 µM.
Regarding `O=C(O)COCCOCC(=O)NC[C@H]1OC[C@H](Nc2nccc(C(F)(F)F)n2)[C@@H](O)[C@H]1O` [A106, 2-(2-(2-((((2R,3R,4R,5S)-3,4-dihydroxy-5-((4-(trifluoromethyl)pyrimidin-2-yl)amino)tetrahydro-2H-pyran-2-yl)methyl)amino)-2-oxoethoxy)ethoxy)acetic acid], the Kd under setting [3] is less than 10 µM.
For the molecule `O=C(O)COCCOCC(=O)C1C[C@H](Nc2cncc(C(F)(F)F)n2)[C@@H](O)[C@@H](O)C1` (stereo partly drawn) [A381], the Kd under setting [4] was less than 10 µM.
`OC[C@H]1NC[C@H](Nc2nccc(C(F)(F)F)n2)[C@@H](O)[C@H]1O` [A117]: the Kd under setting [3] was less than 10 µM.
On to `O=C(O)C1CCN(c2ccc(N3C[C@H](Nc4cncc(C(F)(F)F)n4)[C@@H](O)[C@@H](O)C3)nc2)CC1` [A401], for which the Kd under setting [4] is less than 10 µM.
In the case of `C[C@H]1O[C@H](C(N)=O)[C@H](Oc2cccc(C(F)(F)F)n2)[C@@H](O)[C@H]1O` [A431], the Kd under setting [2] was less than 10 µM.
On to `CC(=O)NNC(=O)N1C[C@H](Oc2cccc(C(F)(F)F)n2)[C@@H](O)[C@@H](O)C1` [A357], for which the Kd under setting [4] was less than 10 µM.
Turning to `O[C@@H]1[C@H](O)[C@@H](Oc2cncc(C(F)(F)F)n2)CO[C@@H]1COc1cnccn1` [A421], under setting [4], the Kd is less than 10 µM.
With `CC[C@]1(COc2ccc(C(=O)O)nn2)O[C@H](O)[C@H](Nc2cccc(C(F)(F)F)n2)[C@@H](O)[C@H]1O` [A314], the Kd under setting [1] is less than 10 µM.
As for `N#Cc1ncc(OC[C@H]2OC[C@H](Nc3cncc(C(F)(F)F)n3)[C@@H](O)[C@H]2O)cn1` [A203, 5-(((2R,3R,4R,5S)-3,4-dihydroxy-5-((6-(trifluoromethyl)pyrazin-2-yl)amino)tetrahydro-2H-pyran-2-yl)methoxy)pyrimidine-2-carbonitrile], under setting [1], the Kd was less than 10 µM.
On to `O=C(O)c1ccc(-c2ccc(OC[C@H]3OC[C@H](Oc4cccc(C(F)(F)F)n4)[C@@H](O)[C@H]3O)nn2)cc1` [A255], for which the Kd under setting [1] is less than 10 µM.
Same read-out and setting: then `C#C[C@H]1O[C@H](C)[C@H](O)[C@H](O)[C@H]1Oc1cccc(C(F)(F)F)n1` [A214, (2R,3R,4S,5R,6R)-6-ethynyl-2-methyl-5-((6-(trifluoromethyl)pyridin-2-yl)oxy)tetrahydro-2H-pyran-3,4-diol], with less than 10 µM.
For the molecule `CC1(C)C(=O)c2ccc(-c3cnc(N4CCN5C(=O)N(CCOCCOCCOCC(=O)NC(COCCC(=O)NCCOCCOCCOCCOC[C@H]6OC[C@H](Nc7nccc(C(F)(F)F)n7)[C@@H](O)[C@H]6O)COCCC(=O)NCCOCCOCCOCCOC[C@H]6OC[C@H](Nc7nccc(C(F)(F)F)n7)[C@@H](O)[C@H]6O)C[C@@H]5C4)nc3)nc2N1Cc1cccnc1C#N` [compound 22], under “Table 2, read-out: ASGPR SPR Binding KD”, the Kd was less than 0.1 µM.
For `O=C(NC[C@H]1OC[C@H](Nc2cncc(C(F)(F)F)n2)[C@@H](O)[C@H]1O)c1ccc2occc2c1` [A11, N-(((2R,3R,4R,5S)-3,4-dihydroxy-5-((6-(trifluoromethyl)pyrazin-2-yl)amino)tetrahydro-2H-pyran-2-yl)methyl)benzofuran-5-carboxamide], the Kd under setting [3] was less than 10 µM.
As to `O[C@@H]1[C@H](O)[C@@H](Oc2cccc(C(F)(F)F)n2)CO[C@@H]1CN1CCN(c2ccncn2)CC1` [A284], the Kd under setting [1] was less than 10 µM.
For `O=C(OCc1ccccc1)N1C[C@H](Nc2cncc(C(F)(F)F)n2)[C@@H](O)[C@@H](O)C1` [A361], under setting [4], the Kd was less than 10 µM.
Regarding `C#CCOc1nc(N[C@H]2CO[C@H](CO)[C@H](O)[C@@H]2O)cc(C(F)(F)F)n1` [A402], under setting [4], the Kd is 10 to 100 µM.
Take `C[C@H]1O[C@H](C#Cc2ccc(C(=O)O)nn2)[C@H](Oc2cccc(C(F)(F)F)n2)[C@@H](O)[C@H]1O` [A331]: the Kd under setting [1] was less than 10 µM.
On to `NCc1ccc(N2CCC(CN3CCN(C[C@H]4OC[C@H](Nc5cncc(C(F)(F)F)n5)[C@@H](O)[C@H]4O)CC3)CC2)cc1` [A165, (2R,3R,4R,5S)-2-((4-((1-(4-(aminomethyl)phenyl)piperidin-4-yl)methyl)piperazin-1-yl)methyl)-5-((6-(trifluoromethyl)pyrazin-2-yl)amino)tetrahydro-2H-pyran-3,4-diol], for which, for the setting “Biacore 8K, 25° C., Table 1B, read-out: ASGPR Kd”, the Kd is less than 10 µM.
As to `O=C(NC[C@H]1OC[C@H](Nc2cncc(C(F)(F)F)n2)[C@@H](O)[C@H]1O)c1ncc2c(n1)CCNC2` [A86, N-(((2R,3R,4R,5S)-3,4-dihydroxy-5-((6-(trifluoromethyl)pyrazin-2-yl)amino)tetrahydro-2H-pyran-2-yl)methyl)-5,6,7,8-tetrahydropyrido[4,3-d]pyrimidine-2-carboxamide], the Kd under setting [3] was less than 10 µM.
For `O=C(NC[C@H]1OC[C@H](Nc2cncc(C(F)(F)F)n2)[C@@H](O)[C@H]1O)c1nc2ccccc2[nH]1` [A13, N-(((2R,3R,4R,5S)-3,4-dihydroxy-5-((6-(trifluoromethyl)pyrazin-2-yl)amino)tetrahydro-2H-pyran-2-yl)methyl)-1H-benzo[d]imidazole-2-carboxamide], the Kd under setting [3] is less than 10 µM.
`O=C(O)c1ccc(CN2CCN(C[C@H]3OC[C@H](Nc4cncc(C(F)(F)F)n4)[C@@H](O)[C@H]3O)CC2)cc1` [A199, 4-((4-(((2R,3R,4R,5S)-3,4-dihydroxy-5-((6-(trifluoromethyl)pyrazin-2-yl)amino)tetrahydro-2H-pyran-2-yl)methyl)piperazin-1-yl)methyl)benzoic acid]: the Kd under setting [1] was less than 10 µM.
Same read-out and setting: the result for `CC(=O)[C@H]1O[C@H](C)[C@H](O)[C@H](O)[C@H]1Oc1cccc(C(F)(F)F)n1` [A334] reads less than 10 µM.
